Data: US20220000860A1, “COMPOUNDS, COMPOSITIONS, AND METHODS FOR TREATING HUMAN IMMUNODEFICIENCY VIRUS” (OYAGEN, INC., priority 2017, published 2022)

Tests used:
[1] = molecular target: T1, HIV-1 protease (Human immunodeficiency virus type 1 group M subtype B, UniProt P12497); assay: protease assay (Abz-HIV Protease Substrate FRET); type: biochemical
T1 construct: A 50 μM stock HIV-1 protease (received from Sook-kyung Lee (UNC)); gift from Sook-kyung Lee (UNC)
Procedure: (§1) For the assays listed in Table I, the integrase assay was conducted using the XpressBio HIV-1 Integrase Assay Kit according to the manufacture's protocol. The protease assay was conducted with the Anthranilyl (Abz)-HIV Protease Substrate (Bachem H-2992), a hexapeptide FRET substrate derived from the p24/p15 cleavage site of the viral gag-pol poly-protein, which allows the screening of potential HIV protease inhibitors. 1 mM Abz-Substrate was diluted with Assay Buffer to a working stock of 20 μM. A 50 μM stock HIV-1 protease (received from Sook-kyung Lee (UNC)) was diluted with Assay Buffer (50 mM HEPES, pH 6.8, 150 mM NaCl, and 1% DMSO) to a working stock of 100 nM. 2 μl 100 nM HIV-1 Protease along with 2 uL 20 μM Abz Substrate was added into each well and incubated at room temperature (avoiding light) for 1 hour before being read on an Envision plate reader (Perkin Elmer) excitation at 280 nm, emission at >435 nm. The reverse transcriptase assay utilized purified recombinant HIV (pNL4-3) heterodimeric (p66/p51) Reverse Transcriptase (RT) that was purchased from a commercially available source. The assay was performed in 96-well filter plate, where RT activity was determined by the incorporation of radiolabeled deoxyribonucleotides into the newly synthesized DNA strand. The RT reaction mixture contained in vitro transcribed viral RNA derived from the HIV-1NL4-3 5′-LTR region (position 454 to 652) and primer that is complementary to the primer binding site (PBS, nucleotide residues nucleotides 636 to 652), radiolabeled deoxyribonucleotide, dNTPs and reverse transcriptase. Briefly, the reaction was carried out in a volume of 50 μl containing 50 mM Tris HCl, pH 7.8, 50 mM KCl, 5 mM MgCl2, 1 mM DTT, 50 μM each of dATP, dCTP, dGTP, 50 nM dTTP, 1 μCi of [^3H] dTTP (70-90 Ci/mM) and 5 nM template/primer. The reaction was initiated by the addition of 10 nM RT. For compound screening, serially diluted test articles were added to the reaction followed by the addition of RT. The reaction mixture was incubated at 37° C. for 1 h, and then quenched by the addition of ice-cold trichloroacetic acid (TCA) to the final concentration of 10%. The plate was incubated at 4° C. for 1 h to precipitate the synthesized DNA, then rinsed 3-times with 10% TCA and 1 time with 70% ethanol. After addition of 25 μl scintillation fluid to completely dried wells, radioactivity is counted by MicroBeta scintillation counter. The reduction of radioactivity represents the potency of compound inhibition.

[2] = system: 00KE_KER2008 (Subtype A); assay: PBMC Acute Infection, 00KE_KER2008; type: cell-based, HIV; conditions: Human immunodeficiency virus 1, PBMC, isolate 00KE-KER2008, subtype A, RT activity readout; for EC50: read-out: EC50; for EC90: read-out: EC90
Procedure: (§2) PHA-stimulated cells from at least two normal donors were pooled (i.e. mixed together), diluted in fresh medium to a final concentration of 1×10^6 cells/mL, and plated in the interior wells of a 96-well round bottom microplate at 50 μL/well (5×10^4 cells/well). Pooling of mononuclear cells from more than one donor was used to minimize the variability observed between individual donors in quantitative and qualitative differences in HIV infection and overall response to the PHA and IL-2 of primary lymphocyte populations. Each plate contained virus control wells (cells plus virus) and experimental wells (drug plus cells plus virus) of either 00KE_KER2008 (Subtype A), IIIB (Subtype B), or 98US_MSC5016 (Subtype C). Test drug dilutions were prepared at a 2×concentration and 100 μL of each concentration was placed in appropriate wells. Fifty μL of a predetermined dilution of virus stock was placed in each test well (final MOI≅0.1). After this period, cell-free supernatant samples were collected for analysis of reverse transcriptase (RT) activity with an RT assay. […] In the Table below SI50=CC50/EC50 and SI90=CC90/EC90.

[3] = molecular target: T2, pNL4-3 Vif (Vif multimerization) (Human immunodeficiency virus type 1 group M subtype B, UniProt P12504); assay: Vif FqRET Multimerization Assay; type: cell-based, HIV
T2 construct: expressed in transfected cells; host or cells: HEK293T
Description: The quenched fluorescence resonance energy transfer (FqRET) cell-based assay utilized expression of pNL4-3 Vif (accession no. M19921) tagged separately with either a EGFP fluorophore (EGFP-V5-Vif) or a REACh2 quencher (Vif-HA-REACh2) in the pIRES-P vector. The Vif multimerization assay was established through robotic co-transfection of HEK293T (293T) cells with Turbofect (Thermo) and optimized for input plasmid ratio (1:4, fluorophore to quencher) to achieve maximum quench of fluorescent signal. EGFP fluorescence was quantified 24 hours after transfection with a BioTek Synergy4 plate reader (ex=485 nm, em=528 nm) followed by the addition of 0-30 μM compound. The plates were read a second time 24 hours after compound addition. The differential between the first and second read in each well was quantified relative to the DMSO control to determine the change in relative fluorescence units (ΔRFU)
The interaction of 2 molecules of Vif (i.e. dimerization) enables quenching of Enhanced Green Fluorescent Protein (EGFP) signal by Resonance Energy Accepting Chromophore 2 (REACh2), a dark mutant of yellow fluorescent protein that is capable of accepting the EGFP donor fluorescence and quenching its signal without an acceptor signal.

[4] = system: IIIB (Subtype B); assay: PBMC Acute Infection, IIIB; type: cell-based, HIV; conditions: Human immunodeficiency virus 1, isolate IIIB, subtype B, RT activity readout; for EC50: read-out: EC50; for EC90: read-out: EC90
Procedure: as §2

[5] = molecular target: T3, HIV-1 Integrase (Human immunodeficiency virus type 1 group M subtype B, UniProt P12497); assay: integrase assay (XpressBio HIV-1 Integrase Assay Kit); type: biochemical
T3 construct: the integrase assay was conducted using the XpressBio HIV-1 Integrase Assay Kit; purchased XpressBio
Procedure: as §1

[6] = system: PBMCs; assay: PBMC Acute Infection, cytotoxicity (CC50/CC90); type: cell-based
Procedure: as §2

T2 sequence (P12504 whole entry): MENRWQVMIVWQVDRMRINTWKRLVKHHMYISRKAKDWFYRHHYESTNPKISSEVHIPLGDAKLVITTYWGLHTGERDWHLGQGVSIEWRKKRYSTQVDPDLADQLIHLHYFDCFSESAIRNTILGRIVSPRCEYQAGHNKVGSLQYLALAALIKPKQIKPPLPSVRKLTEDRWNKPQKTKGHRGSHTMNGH

SMILES | IC50 [1] | activity against HIV protease (result in words) [1] | EC50 [2] | EC90 [2] | EC50 [3] | Vif multimerization (result in words) [3] | EC50 [4] | EC90 [4] | IC50 [5] | activity against HIV integrase (result in words) [5] | CC90 ([6]; row of isolate 98US_MSC5016, subtype C) | CC90 ([6]; row of isolate IIIB, subtype B)
CCc1c2c(nc3ccc(N)cc13)-c1cc3c(c(=O)n1C2)CNC(=O)[C@]3(O)CC [Compound O5-SN, (S)-9-Amino-4,11-diethyl-4-hydroxy-1,2-dihydroquinolino[2′,3′:3,4]pyrrolo[1,2-b][2,7]naphthyridine-3,14(4H,12H)-dione] | > 100000 nM | inactive | 6 nM | 18 nM | 362 nM | block | 8 nM | 25 nM | > 100000 nM | inactive | > 100000 nM | > 100000 nM
CCc1c2c(nc3ccc(O)cc13)-c1cc3c(c(=O)n1C2)CNC(=O)[C@]3(O)CC [SN38-L, (S)-4,11-Diethyl-4,9-dihydroxy-1,2-dihydroquinolino[2′,3′:3,4]pyrrolo[1,2-b][2,7]naphthyridine-3,14(4H,12H)-dione] | > 100000 nM | inactive | 4 nM | 15 nM | 378 nM | block | 10 nM | 28 nM | > 100000 nM | inactive | – | –
